In the supplement of paper PMC10307832:

Assays:
Assay in all cases: relative viability (nuclei count vs DMSO), 5 days (fraction); higher = more cells survive
Erlotinib + Trametinib = compound: C#Cc1cccc(Nc2ncnc3cc(OCCOC)c(OCCOC)cc23)c1 [Erlotinib] + CC(=O)Nc1cccc(-n2c(=O)n(C3CC3)c(=O)c3c(Nc4ccc(I)cc4F)n(C)c(=O)c(C)c32)c1 [Trametinib] (partner 0.02 µM)
Summary of the method: (§1)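 One day after seeding in 1536-well plates, lung cancer cell lines were dosed by pin tool. Dosing was either single-drug or a fixed anchor-drug dose plus five library-drug doses (not always all listed) in √10 steps. After 5 days, nuclei were stained in one fix-and-stain step and counted on 4× images, and relative viability is the nuclei count of treated wells over that of vehicle wells, given as the median of duplicate plates.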

Erlotinib + Pictilisib = compound: C#Cc1cccc(Nc2ncnc3cc(OCCOC)c(OCCOC)cc23)c1 [Erlotinib] + CS(=O)(=O)N1CCN(Cc2cc3nc(-c4cccc5[nH]ncc45)nc(N4CCOCC4)c3s2)CC1 [Pictilisib] (partner 1 µM)
Summary of the method: as §1

Erlotinib + Linsitinib = compound: C#Cc1cccc(Nc2ncnc3cc(OCCOC)c(OCCOC)cc23)c1 [Erlotinib] + C[C@]1(O)C[C@@H](c2nc(-c3ccc4ccc(-c5ccccc5)nc4c3)c3c(N)nccn32)C1 [Linsitinib] (partner 1 µM)
Summary of the method: as §1

Erlotinib + Tozasertib = compound: C#Cc1cccc(Nc2ncnc3cc(OCCOC)c(OCCOC)cc23)c1 [Erlotinib] + Cc1cc(Nc2cc(N3CCN(C)CC3)nc(Sc3ccc(NC(=O)C4CC4)cc3)n2)n[nH]1 [Tozasertib] (partner 0.1 µM)
Summary of the method: as §1

Erlotinib + Olaparib = compound: C#Cc1cccc(Nc2ncnc3cc(OCCOC)c(OCCOC)cc23)c1 [Erlotinib] + O=C(c1cc(Cc2n[nH]c(=O)c3ccccc23)ccc1F)N1CCN(C(=O)C2CC2)CC1 [Olaparib] (partner 8 µM)
Summary of the method: as §1

| Cell Line | relative viability (Erlotinib + Trametinib; first compound 0.02 µM) | relative viability (Erlotinib + Trametinib; first compound 0.2 µM) | relative viability (Erlotinib + Trametinib; first compound 0.6325 µM) | relative viability (Erlotinib + Trametinib; first compound 2 µM) | relative viability (Erlotinib + Pictilisib; first compound 0.02 µM) | relative viability (Erlotinib + Pictilisib; first compound 0.2 µM) | relative viability (Erlotinib + Pictilisib; first compound 0.6325 µM) | relative viability (Erlotinib + Pictilisib; first compound 2 µM) | relative viability (Erlotinib + Linsitinib; first compound 0.02 µM) | relative viability (Erlotinib + Linsitinib; first compound 0.6325 µM) | relative viability (Erlotinib + Linsitinib; first compound 2 µM) | relative viability (Erlotinib + Tozasertib; first compound 0.02 µM) | relative viability (Erlotinib + Tozasertib; first compound 0.2 µM) | relative viability (Erlotinib + Tozasertib; first compound 0.6325 µM) | relative viability (Erlotinib + Tozasertib; first compound 2 µM) | relative viability (Erlotinib + Olaparib; first compound 0.02 µM) | relative viability (Erlotinib + Olaparib; first compound 0.2 µM) | relative viability (Erlotinib + Olaparib; first compound 0.6325 µM) | relative viability (Erlotinib + Olaparib; first compound 2 µM) | relative viability (Erlotinib + Linsitinib; first compound 0.2 µM) |
| --- | --- | --- | --- | --- | --- | --- | --- | --- | --- | --- | --- | --- | --- | --- | --- | --- | --- | --- | --- | --- |
| NCI-H2405 | 0.543 | 0.574 | 0.613 | 0.55 | 0.36 | 0.452 | 0.589 | 0.469 | 1.01 | 0.994 | 0.768 | 0.765 | 0.722 | 0.686 | 0.565 | 0.965 | 0.849 | 0.888 | 0.81 | – |
| NCI-H3122 | 0.254 | 0.271 | 0.22 | 0.246 | 0.576 | 0.614 | – | 0.598 | 1.04 | 1.02 | 0.961 | 0.489 | 0.444 | 0.44 | 0.297 | 0.618 | 0.652 | 0.631 | 0.618 | 1.06 |
| PC-3 [JPC-3] | 0.557 | 0.427 | 0.337 | 0.332 | 0.573 | 0.395 | 0.416 | 0.295 | 0.829 | 0.423 | 0.385 | 0.825 | 0.355 | 0.331 | 0.274 | 1.05 | 0.559 | 0.466 | 0.434 | 0.461 |
| PC-14 | 0.185 | 0.0801 | 0.107 | 0.0898 | 0.221 | 0.0861 | 0.0876 | 0.0584 | 0.426 | 0.269 | 0.219 | 0.435 | 0.148 | 0.159 | 0.103 | 0.272 | 0.168 | 0.135 | 0.106 | 0.289 |
| RERF-LC-KJ | 0.913 | 0.774 | 0.799 | 0.613 | 0.579 | 0.412 | 0.376 | 0.307 | 0.914 | 0.736 | 0.565 | 0.55 | 0.53 | 0.44 | 0.381 | 1 | 0.86 | 0.994 | 0.852 | 0.837 |
| SK-LU-1 | 0.495 | – | 0.566 | 0.434 | 0.695 | 0.665 | 0.598 | 0.58 | 1.46 | 1.18 | 0.75 | 0.336 | 0.352 | 0.332 | 0.267 | 0.536 | 0.551 | 0.403 | 0.455 | 1.11 |
| SK-MES-1 | 0.494 | 0.345 | 0.347 | 0.312 | 0.287 | 0.245 | 0.258 | 0.22 | 1.09 | 0.537 | 0.434 | 0.925 | 0.929 | 0.648 | 0.536 | 0.821 | 0.563 | 0.465 | 0.346 | 0.767 |
| SW 1573 | 0.568 | 0.557 | 0.526 | 0.474 | 0.525 | 0.482 | 0.62 | 0.419 | 0.81 | 0.797 | 0.853 | 0.183 | 0.197 | 0.156 | 0.226 | 0.502 | 0.494 | 0.558 | 0.364 | 0.724 |
| UMC-11 | 0.738 | 0.637 | 0.916 | 0.71 | 0.795 | 0.7 | 1.04 | 0.816 | 1.04 | 1.16 | 0.945 | 0.208 | 0.189 | 0.204 | 0.198 | 0.987 | 0.426 | 0.477 | 0.324 | 1.05 |
